Measured values: patent US20260297131A1, “COMPOSITIONS AND METHODS FOR PEPTIDE-BASED MODULATORS OF HUMAN PAPILLOMAVIRUS ONCOPROTEIN E6” (priority 2023, published 2026)
Where two headings read alike, the source gives them in different places. Square brackets hold non-standard residues; d marks the D form. Peptide text beside a SMILES is read from it. * marks the point of attachment. Acetyl(9-fluorenyl) = O=C(CC1c2ccccc2-c2ccccc21)*; Anthracene1carbonyl = O=C(c1cccc2cc3ccccc3cc12)*; 2Nal = N[C@@H](Cc1ccc2ccccc2c1)C(=O)O; Gly(cPent) = N[C@H](C(=O)O)C1CCCC1; Aad = N[C@@H](CCCC(=O)O)C(=O)O; Cba = N[C@@H](CC1CCC1)C(=O)O; Aib = CC(C)(N)C(=O)O; Dha = C=C(N)C(=O)O

How the values were obtained:
[1] = biological target: MBP-16E6 L57A (Human papillomavirus 16, UniProt P03126, C104S/C118S/C147S/C87S/L57A); conditions: 10 μM reactide 18
[2] = biological target: T1, MBP-16E6 (Human papillomavirus 16, UniProt P03126, C104S/C118S/C147S/C87S)
[3] = biological target: T1, MBP-16E6; remark: listed apart in the source
[4] = biological target: T1, MBP-16E6; conditions: for crosslinking to MBP-16E6: LC-MS
[5] = biological target: T1, MBP-16E6; conditions: 1 μM MBP-16E6, Dha peptide mixture 12 μM, 2 h, 37° C.
[6] = biological target: MBP-16E6 C58S (Human papillomavirus 16, UniProt P03126, C104S/C118S/C147S/C58S/C87S); conditions: 12 h, PBS, 37° C.
[7] = biological target: Sumo-MDM2 (Homo sapiens, UniProt Q00987); assay: Crosslinking in a protein mixture, Sumo-MDM2; format: binding; conditions: 10 μM peptide, 37° C., 12 h
[8] = biological target: 16E6/E6AP (Human papillomavirus 16, UniProt P03126, C104S/C118S/C147S/C87S); conditions: 1 μM MBP-16E6
[9] = biological target: T2, THRA (Homo sapiens, UniProt P10827); format: binding
T2 sequence (P10827 148-410 limits assumed): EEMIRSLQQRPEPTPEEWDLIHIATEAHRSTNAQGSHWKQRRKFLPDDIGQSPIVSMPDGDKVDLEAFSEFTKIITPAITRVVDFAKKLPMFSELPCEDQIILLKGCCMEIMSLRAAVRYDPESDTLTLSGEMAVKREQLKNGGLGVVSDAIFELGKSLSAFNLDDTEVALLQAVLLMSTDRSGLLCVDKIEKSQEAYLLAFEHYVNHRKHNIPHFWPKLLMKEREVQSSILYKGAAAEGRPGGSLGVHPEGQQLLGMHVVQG

[10] = biological target: bovine serum albumin (BSA) (Bos taurus, UniProt P02769); assay: Crosslinking in a protein mixture, BSA; format: binding; conditions: 10 μM peptide, 37° C., 12 h
Chain of bovine serum albumin (BSA) (P02769 25-607): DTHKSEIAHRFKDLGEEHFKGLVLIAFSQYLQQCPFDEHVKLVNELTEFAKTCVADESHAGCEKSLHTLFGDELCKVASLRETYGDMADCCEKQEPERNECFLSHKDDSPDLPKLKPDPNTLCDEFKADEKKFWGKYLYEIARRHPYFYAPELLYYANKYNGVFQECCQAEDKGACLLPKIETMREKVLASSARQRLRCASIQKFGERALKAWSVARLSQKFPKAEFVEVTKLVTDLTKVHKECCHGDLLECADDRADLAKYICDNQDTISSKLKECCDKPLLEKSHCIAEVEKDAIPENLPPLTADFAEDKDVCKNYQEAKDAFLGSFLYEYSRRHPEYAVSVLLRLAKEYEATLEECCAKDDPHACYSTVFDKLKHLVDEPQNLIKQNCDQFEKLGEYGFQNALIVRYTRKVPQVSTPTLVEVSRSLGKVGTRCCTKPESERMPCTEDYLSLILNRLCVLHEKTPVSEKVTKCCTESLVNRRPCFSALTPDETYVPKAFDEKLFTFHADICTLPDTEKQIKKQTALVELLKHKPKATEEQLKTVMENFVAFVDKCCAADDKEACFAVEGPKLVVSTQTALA

Chain of Sumo-MDM2 (Q00987 25-109): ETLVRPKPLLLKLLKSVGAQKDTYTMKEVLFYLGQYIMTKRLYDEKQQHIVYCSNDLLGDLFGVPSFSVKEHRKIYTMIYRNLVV

Row | SMILES | crosslinking to L57A [1] | improved affinity compared to parent reactide ELT-DHA9G [2] [fold] | improvement over E3 (ELT-DHA9G) ([3]; kinetic study, kinact/Ki) [fold] | kinact/Ki ([3]; role: inhibitor) [M⁻¹ s⁻¹] | kinact ([3]; role: inhibitor, first-order rate constant, steady-state approximation) [s⁻¹] | mono-crosslinking ([4]; 10 μM reactide, 1 μM MBP-16E6, PBS, 37° C., 2 h) [%] | crosslinking to MBP-16E6 [4] | mono-crosslink yield in competitive mixture [5] [%] | crosslinking to C58S ([6]; 10 μM reactide 18) | modification of MDM2 [7] | mono-crosslinked conversion of 16E6 in protein mixture ([4]; protein mixture with BSA and Sumo-MDM2 (1 μM each), 10 μM peptide, 37° C., 12 h) [%] | BLI response signal to immobilized E6AP protein [8] | crosslink to THRA [9] | crosslinking to C58S ([6]; 3 μM peptide) | crosslinking to C58S ([6]; 3 μM peptide, listed as peptide 13) | modification of BSA [10]
1 | C=C(NC(=O)[C@H](CC(C)C)NC(=O)[C@H](CC1CCC1)NC(=O)[C@H](CCC(=O)O)NC(=O)C(C)(C)NC(=O)[C@H](CC(C)C)NC(=O)[C@@H](NC(=O)[C@H](Cc1ccc2ccccc2c1)NC(=O)[C@@H](N)CCCC(=O)O)C1CCCC1)C(=O)N[C@@H](CCC(=O)O)C(=O)N[C@@H](CCC(=O)O)C(=O)N[C@@H](CCCNC(=N)N)C(N)=O [peptide 18] (H-[Aad][2Nal][Gly(cPent)]L[Aib]E[Cba]L[Dha]EER-NH2) | no crosslinking | 50 | 50 | 22700 | 0.018 | > 95 | Quantitative mono-crosslinked | 83 | No crosslinking | – | – | – | – | – | – | –
2 | C=C(NC(=O)[C@H](CC(C)C)NC(=O)[C@H](CC(C)C)NC(=O)[C@H](CCC(=O)O)NC(=O)[C@H](CCC(N)=O)NC(=O)[C@H](CC(C)C)NC(=O)[C@@H](NC(=O)[C@H](CC(C)C)NC(=O)[C@H](CCC(=O)O)NC(=O)[C@H](C)NC(=O)[C@H](CO)NC(=O)[C@H](CCC(N)=O)NC(=O)[C@@H]1CCCN1C(=O)[C@@H](NC(=O)CC1c2ccccc2-c2ccccc21)[C@@H](C)CC)[C@@H](C)O)C(=O)N[C@@H](CCCNC(=N)N)C(=O)N[C@@H](CCCNC(=N)N)C(=O)N[C@@H](CCCCN)C(=O)N[C@@H](CCCCN)C(=O)N[C@@H](CCCCNC(=O)c1cccc2cc3ccccc3cc12)C(N)=O [reactide 13] ({Acetyl(9-fluorenyl)}-IPQSAELTLQELL[Dha]RRKKK(Anthracene1carbonyl)-NH2) | – | – | – | – | – | – | Quantitative mono-crosslinked | – | – | no observable modifications | > 95 | significantly decreased BLI response signal | no crosslink | No crosslinking | no appreciable amount of reaction product | no observable modifications
